The source of these data is patent US10342818B2, “Dual-action compounds targeting adenosine A2A receptor and adenosine transporter for prevention and treatment of neurodegenerative diseases” (Academia Sinica, priority 2009, dated 2019).

The target in data set [1] is T1, equilibrative nucleoside transporter 1 (ENT1) (Cavia porcellus, UniProt H0V4R7).
T1 construct: Membrane fractions collected from the cerebral cortex of Duncan Hartley derived guinea pigs; tissue MDS Pharma Services Taiwan (assay provider); host or cells: guinea pig cerebral cortex membranes
T1 sequence (H0V4R7 1-461): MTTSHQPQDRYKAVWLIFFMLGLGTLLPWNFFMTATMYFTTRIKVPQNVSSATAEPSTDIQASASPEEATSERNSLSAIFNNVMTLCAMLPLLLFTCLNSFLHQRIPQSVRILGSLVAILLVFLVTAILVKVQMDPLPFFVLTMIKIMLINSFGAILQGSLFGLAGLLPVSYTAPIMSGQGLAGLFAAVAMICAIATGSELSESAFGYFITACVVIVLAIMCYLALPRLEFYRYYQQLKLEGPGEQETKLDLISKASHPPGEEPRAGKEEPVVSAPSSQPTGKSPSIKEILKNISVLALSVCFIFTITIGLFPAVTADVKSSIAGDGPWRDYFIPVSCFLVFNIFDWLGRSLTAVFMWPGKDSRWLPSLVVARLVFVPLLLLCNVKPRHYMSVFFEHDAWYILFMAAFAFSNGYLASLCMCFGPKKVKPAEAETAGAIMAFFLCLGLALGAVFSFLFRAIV
Put plainly: Radioligand binding assay for adenosine transporters (3H-NBTI, cerebral cortex membranes). Further details: species or system guinea pig. To be noted: for Binding with / activity against ENT1, result in words: radioligand binding; for Ki: guinea pig equilibrium transporter 1, cerebral cortex membranes, 3H-NBTI 0.5 nM. An excerpt:
The pharmacological properties of the prepared adenosine analogues were characterized by MDS Pharma Services using radioligand binding assays. […] Except for 11 and 15, the adenosine derivatives having modification at the C-5′ position appeared to deteriorate their binding with A2AR, though they still maintained high affinity with ENT1.

Data set [2] concerns PC12 cells. Put plainly: MTT metabolism assay, rescue of serum-deprived PC12 cells from apoptosis. Format: cell-based. To be noted: 0.01 μM, 24 h. An excerpt: Cell viability was monitored by the MTT assay, and is expressed as a percentage of the MTT activity measured in the serum-containing group. […] Collectively, the dual function of these compounds in activation of adenosine receptor and in inhibition of adenosine transporter might synergistically increase the effective concentration of adenosine, especially when these two proteins are in proximity.
PC12 cells purchased from ATCC (Manassas, Va., USA) were maintained in Dulbecco's modified Eagle's medium (DMEM) supplemented with 10% horse serum and 5% fetal bovine serum and incubated in a CO2 incubator (5%) at 37° C. Survival was assessed by the 3-(4,5-dimethylthiazol-2-yl)-2,5-diphenyltetrazolium bromide (MTT) metabolism assay as described elsewhere.^49,50 In brief, cells grown on 150-mm plates were washed three times with PBS and resuspended in DMEM. Suspended cells (1×10^4 cells) were plated on 96-well plates and treated with or without the indicated reagent. After incubation for 24 h, MTT (0.5 mg/mL) was added to the medium and incubated for 3 h. After discarding the medium, DMSO (100 μL) was then applied to the well to dissolve the formazan crystals derived from the mitochondrial cleavage of the tetrazolium ring by live cells. The absorbance at 570/630 nm in each well was measured on a micro-enzyme-linked immunosorbent assay (ELISA) reader.

In another data set the target is human A2A receptor (Homo sapiens, UniProt P29274). Put plainly: Radioligand binding assay of the A2A receptor (3H-CGS21680, MDS Pharma Services). To be noted: for Binding with A2AR, result in words: radioligand binding.
Sequence of human A2A receptor (P29274 whole entry): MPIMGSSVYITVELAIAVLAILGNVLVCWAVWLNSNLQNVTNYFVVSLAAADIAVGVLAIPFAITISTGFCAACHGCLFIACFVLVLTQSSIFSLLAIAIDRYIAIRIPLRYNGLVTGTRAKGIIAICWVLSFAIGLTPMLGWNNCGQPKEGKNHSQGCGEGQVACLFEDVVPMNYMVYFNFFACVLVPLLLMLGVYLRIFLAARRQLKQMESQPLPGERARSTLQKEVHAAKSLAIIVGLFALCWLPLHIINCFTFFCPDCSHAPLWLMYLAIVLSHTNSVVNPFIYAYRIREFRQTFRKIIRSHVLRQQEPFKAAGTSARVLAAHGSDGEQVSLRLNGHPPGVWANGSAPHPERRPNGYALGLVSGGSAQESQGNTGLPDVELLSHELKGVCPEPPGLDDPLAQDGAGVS
The test system of data set [3] is PC12 cells. To be noted: compound isolated from Gastrodia elata, earlier report; cited from earlier work.

Entries after “also recorded” stand apart in the source; their conditions may differ. Read-outs that look alike come from different tables or passages of the source. A value given as a limit tells only on which side of the number the result lay.

Experimental for human A2A receptor: Radioligand binding assays were performed by MDS Pharma Services Taiwan (Taipei, Taiwan) using standard binding protocols. For the binding assay of the A2A receptor,^46 membrane proteins collected from HEK293 cells overexpressing the human A2A receptor were incubated in reaction buffer [50 mM Tris-HCl (pH 7.4), 10 mM MgCl2, 1 mM EDTA, and 2 U/mL adenosine deaminase] containing ^3H-CGS21680 (50 nM) for 90 min at 25° C. Nonspecific binding was assessed in the presence of 50 μM adenosine-5′-N-ethylcarboxamide (NECA).

On to `OC[C@H]1O[C@@H](n2cnc3c(NCCc4c[nH]c5ccccc45)ncnc32)[C@H](O)[C@@H]1O` [Compound 6, N^6-(3-Indolylethyl)adenosine], for which the “Binding with / activity against ENT1, result in words” value (“Binding with / activity against ENT1” below) in data set [1] was “sub-micromolar range”. In the data set with PC12 cells [2], the “Rescue of PC12 cells from apoptosis evoked by serum withdrawal (cell viability, MTT)” value is reported as “rescued PC12 cells from the apoptosis evoked by serum withdrawal equally as well as 1”. The “Binding with A2AR, result in words” value on human A2A receptor is recorded as “low micromolar”. For the same compound, the “Binding affinity to A2AR of compound 6 relative to compound 11” value at human A2A receptor (ratio of Ki values) worked out at 10 fold.

As for `COc1ccc(CNc2ncnc3c2ncn3[C@@H]2O[C@H](CO)[C@@H](O)[C@H]2O)cc1` [Compound 3, N^6-(4-methoxybenzyl)adenosine], the inhibition constant (Ki) in data set [1] was 0.318 µM; on human A2A receptor, 30.1 µM.

Regarding `COc1ccc(CNc2ncnc3c2ncn3C2OC(c3nnn[nH]3)C(O)C2O)cc1` (centres unmarked) [Compound 16, 2-[6-(4-Methoxybenzylamino)-purin-9-yl]-5-(1H-tetrazol-5-yl)-tetrahydrofuran-3,4-diol], the melting point was 210 to 210.6 °C. In data set [1], this compound returned an inhibition constant Ki of 1.17 µM. Also, the Ki at human A2A receptor was > 100 µM.

As to `CCCCc1cn(C[C@H]2O[C@@H](n3cnc4c(NCc5ccc(OC)cc5)ncnc43)[C@H](O)[C@@H]2O)nn1` [Compound 12], the inhibitory constant (Ki) is 0.511 µM in data set [1] and > 100 µM at human A2A receptor.

With `CCNC(=O)C1OC(n2cnc3c(N)nc(NCCc4ccc(CCC(=O)O)cc4)nc32)C(O)C1O` (centres unmarked) [CGS, 6-amino-9-(5-ethylcarbamoyl-3,4-dihydroxy-oxolan-2-yl)-2-{2-[4-(2-carboxyethyl)phenyl]ethylamino}purine, reference compound], the “Binding with / activity against ENT1” value in data set [1] was “lack the activity against ENT1; also recorded: no inhibitory activity toward hENT1”.

Compound `COc1ccc(CNc2ncnc3c2ncn3[C@@H]2O[C@H](Cn3cc(C)nn3)[C@@H](O)[C@H]2O)cc1` [Compound 11, 5′-Deoxy-5′-(4-methyl-1,2,3-triazol-1-yl)-N^6-(4-methoxybenzyl)adenosine] registered a melting point of 183 to 183.2 °C. The Ki in data set [1] amounted to 0.96 µM. Besides, the inhibition constant Ki at human A2A receptor is 41.8 µM.

Compound `CCNC(=O)C1OC(n2cnc3c(NCc4ccc(O)cc4)ncnc32)C(O)C1O` (centres unmarked) [Compound 15, 3,4-Dihydroxy-5-[6-(4-hydroxybenzylamino)-purin-9-yl]-tetrahydrofuran-2-carboxylic Acid Ethylamide] had a melting point of 179.7 to 180.5 °C. Besides, in data set [1], the inhibitory constant (Ki) is > 10 µM. The affinity at human A2A receptor corresponds to a Ki of 20.3 µM.

Turning to `COc1ccc(CNc2ncnc3c2ncn3[C@@H]2O[C@H](CN=[N+]=[N-])[C@H](O)C2O)cc1` (some centres unmarked) [Compound 8], the Ki in data set [1] was found to be 0.581 µM.

Turning to `COc1ccc(CNc2ncnc3c2ncn3[C@@H]2O[C@H](CCl)[C@@H](O)[C@H]2O)cc1` [Compound 7], the values for the Ki (in data set [1]; at human A2A receptor) were 2.98 µM and > 100 µM, respectively.

Consider `OC[C@H]1O[C@@H](n2cnc3c(NCc4ccc(O)cc4)ncnc32)[C@H](O)[C@@H]1O` [Compound 1, N^6-(4-Hydroxybenzyl)adenosine], for which the inhibitory constant (Ki) in data set [1] stood at 0.538 µM; at human A2A receptor (read-out: Ki A2A-R, human adenosine A2A receptor, HEK293 membranes, 3H-CGS21680 50 nM), 2.62 µM. Besides, the “Binding with / activity against ENT1” value in data set [1] is reported as “sub-micromolar range”. Besides, in the data set with PC12 cells [2], the “Rescue of PC12 cells from apoptosis evoked by serum withdrawal (cell viability, MTT)” value is reported as “rescued PC12 cells from the apoptosis evoked by serum withdrawal”. For the same compound, the “Prevention of apoptosis of serum-deprived PC12 cells (previously reported)” value in the data set on PC12 cells [3] was “prevented apoptosis of serum-deprived PC12 cells”. At human A2A receptor, the “Binding with A2AR, result in words” value is “low micromolar”.

`COc1ccc(CNc2ncnc3c2ncn3[C@@H]2O[C@H](CNC(C)=O)[C@@H](O)[C@H]2O)cc1` [Compound 9, 5′-Acetamido-5′-deoxy-N^6-(4-methoxybenzyl)adenosine] registered a melting point of 121.1 to 121.6 °C. In addition, the Ki in data set [1] was 1.43 µM. Moreover, on human A2A receptor, the inhibition constant (Ki) is > 100 µM.

On to `CC1(C)O[C@@H]2[C@H](O1)[C@@H](CO)O[C@H]2n1cnc2c(NCc3ccc(O)cc3)ncnc21` [Compound 1-acetonide, 1-acetonide], for which the Ki (in data set [1]; at human A2A receptor) was > 100 µM each time.

`O=[N+]([O-])c1ccc(CSc2ncnc3c2ncn3[C@@H]2O[C@H](CO)[C@@H](O)[C@H]2O)cc1` [NBTI, S-(4-nitrobenzyl)-6-thioinosine, reference compound]: in data set [1], the inhibitory constant (Ki) amounted to 0.00029 µM. In addition, at human A2A receptor, the Ki was > 10 µM and the “Binding with A2AR, result in words” value was “no binding ability with A2AR”.

For `COc1ccc(CNc2ncnc3c2ncn3[C@@H]2O[C@H](CNS(=O)(=O)c3ccc(C)cc3)[C@@H](O)[C@H]2O)cc1` [Compound 10], the inhibition constant Ki in data set [1] was 0.2 µM; at human A2A receptor, > 100 µM.

For `CCCCCCc1cn(C[C@H]2O[C@@H](n3cnc4c(NCc5ccc(OC)cc5)ncnc43)[C@H](O)[C@@H]2O)nn1` [Compound 13], the values for the inhibition constant Ki (in data set [1]; on human A2A receptor) were 0.052 µM and > 100 µM, respectively.

Take `COc1ccc(CNc2ncnc3c2ncn3[C@@H]2O[C@H](Cn3cc(Cc4ccccc4)nn3)[C@@H](O)[C@H]2O)cc1` [Compound 14]: the Ki was 0.116 µM in data set [1] and > 100 µM on human A2A receptor.
